Experimental data as given in PubChem BioAssay (NCI).
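Assay format: 96-well plates, 48-hour exposure. TGI denotes the concentration required for complete inhibition of growth.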

Experiments:
Assay in all cases: NCI-60 cell line screen, 48 h
[1] = system: MOLT-4 leukemia
[2] = system: CCRF-CEM leukemia
[3] = system: HT29 colon
[4] = system: SR leukemia
[5] = system: SK-OV-3 ovarian
[6] = system: SNB-75 CNS
[7] = system: A498 renal
[8] = system: COLO 205 colon
[9] = system: HCC-2998 colon
[10] = system: MDA-MB-435
[11] = system: ACHN renal
[12] = system: LOX IMVI melanoma
[13] = system: NCI-H23 lung
[14] = system: OVCAR-3 ovarian
[15] = system: MCF7 breast
[16] = system: SK-MEL-28 melanoma
[17] = system: U251 CNS
[18] = system: SNB-19 CNS
[19] = system: MDA-N
[20] = system: NCI/ADR-RES ovarian
[21] = system: TK-10 renal
[22] = system: SF-295 CNS
[23] = system: SN12C renal
[24] = system: HL-60(TB) leukemia
[25] = system: A549 NSCLC
[26] = system: DU-145 prostate
[27] = system: NCI-H460 lung
[28] = system: UO-31 renal
[29] = system: NCI-H226 lung
[30] = system: HOP-62 NSCLC
[31] = system: UACC-257 melanoma
[32] = system: RXF 393 renal
[33] = system: HS 578T breast
[34] = system: PC-3 prostate
[35] = system: SW-620 colon
[36] = system: SK-MEL-5 melanoma
[37] = system: SK-MEL-2 melanoma
[38] = system: UACC-62 melanoma
[39] = system: CAKI-1 renal
[40] = system: KM12 colon
[41] = system: HCT-116 colon
[42] = system: 786-0 renal
[43] = system: MDA-MB-231 breast
[44] = system: SF-268 CNS
[45] = system: HOP-92 NSCLC
[46] = system: RPMI-8226 leukemia
[47] = system: K-562 leukemia
[48] = system: M14 melanoma
[49] = system: SF-539 CNS
[50] = system: OVCAR-4 ovarian
[51] = system: OVCAR-8 ovarian
[52] = system: OVCAR-5 ovarian
[53] = system: T-47D breast

Measured: TGI

CCOC(=O)C(=O)/C(=C/n1c(=S)[nH]c2ccc([N+](=O)[O-])cc21)C(=O)OCC
> 100 µM: all assays above
